Results from US8956869B2, “Peptide inhibiting differentiation of hematopoietic stem cells or hematopoietic precursor cells and use of same” (Kyushu University, National University Corporation, priority 2009, dated 2015).
Where a SMILES comes first, the peptide text is derived from it. Where no end group is shown, it is not given here. The star is where a group is joined. Myristoyl = CCCCCCCCCCCCCC(=O)*

Key:
Format in all cases: cell-based
[1] = Confirmation of induction of cell death (PI staining, live cell ratio); conditions: human, liquid-cultured 11 days
Method: (§1) (1-2) In order to confirm induction of cell death, cells that were liquid-cultured for 11 days in each experimental system were stained with PI, and the ratio of live cells was calculated based on the measured number of dead cells.
(§2) The live cell ratio {(the number of live cells/(the number of live cells+the number of dead cells)} was calculated for each experimental system (control, positive control, KS-13 (1 μg/mL), and KS-13 (10 μg/mL)), using cells that were liquid-cultured for 11 days as the target cells. The results are shown below.

[2] = tested on: human cord blood CD34(+) hematopoietic stem cell population; assay: as above; conditions: KS-13 1 and 10 μg/mL, 11 days
Method: as §1, §2

[3] = tested on: mouse fetal liver hematopoietic stem cells (CD45(+)c-Kit(+)Sca-1 (+)); assay: Hematopoietic colony-forming cell assay; conditions: for number of colonies: peptide 30 μg/mL, culturing for 12 days, 1,000 cells/dish
Method: KS-13 (10 μg/mL or 30 μg/mL) was added to a semisolid medium (Methocult M3434 produced by STEMCELL Technologies) containing cell stimulatory factors (50 ng/mL of rm SCF, 10 ng/mL of rm IL-3, 10 ng/mL of rh IL-6, and 3 U/mL of rh EPO) (rm: recombinant form; rh: recombinant human form), and mouse fetal liver hematopoietic stem cells (CD45(+)c-Kit(+)Sca-1 (+)) (1,000 cells/dish) were cultured. Hematopoietic colony-forming cell assay was performed to evaluate the hematopoietic potential of the cells. Further, for comparison, hematopoietic colony-forming cell assay was performed in a similar manner using a KS-13-free liquid medium (none), and the hematopoietic potential of the cells was evaluated.
Myristoylated KS-13 (30 μg/mL) in which the N-terminal of KS-13 (SEQ ID NO: 1) is myristoylated and control peptide (NQVSIGCPCDGKK: SEQ ID NO: 22) (30 μg/mL) were added to a semisolid medium (Methocult M3434 produced by STEMCELL Technologies) containing cell stimulatory factors (50 ng/mL of rm SCF, 10 ng/mL of rm IL-3, 10 ng/mL of rh IL-6, and 3 U/mL of rh EPO) (rm: recombinant form; rh: recombinant human form) to culture mouse fetal liver hematopoietic stem cells (CD45(+)c— Kit(+)Sca-1(+)) (1,000 cells/dish) therein. Then, hematopoietic colony-forming cell assay was performed to evaluate the hematopoietic potential of the cells.

Row | Compound | viability at 264 h, 1 µg/mL ([1]; KS-13 1 μg/mL) | viability at 264 h, 10 µg/mL ([1]; KS-13 10 μg/mL) | induction of cell death [2] | number of colonies [3] | colony formation versus control peptide ([3]; 30 μg/mL, 12 days)
1 | CC[C@H](C)[C@H](NC(=O)[C@@H](NC(=O)[C@H](CS)NC(=O)[C@@H]1CCCN1C(=O)CNC(=O)[C@H](CC(=O)O)NC(=O)[C@H](CCCCN)NC(=O)[C@H](CCCCN)NC(=O)[C@H](CCC(N)=O)NC(=O)[C@@H](N)CS)C(C)C)C(=O)N[C@@H](CC(N)=O)C(=O)NCC(=O)N[C@@H](CO)C(=O)O [KS-13, Cys Gln Lys Lys Asp Gly Pro Cys Val Ile Asn Gly Ser] (H-CQKKDGPCVINGS-OH) | 97.5% | 97.6% | does not induce cell death | – | –
2 | NQVSIGCPCDGKK (Control peptide) [reference compound] | – | – | – | 111.1 | –
3 | myristoylated KS-13: KS-13 (SEQ ID NO: 1) in which the N-terminal is myristoylated (Myristoyl-CQKKDGPCVINGS; cysteine pairing not given here; listed as Homo sapiens) | – | – | – | 93.9 | inhibited colony formation more than the control
